Measured values published in patent publication US20120029196A1, “PURIFICATION 4-AZA-ANDROST-1-ENE-17-OIC ACID FROM 4-AZA-ANDROSTAN-17-OIC ACID” (PHF S.A., priority 2009, published 2012).

Experiment: solubility in solvents at 25° C.
Format: physicochemical
[1] = solvent Toluene, LOD = Limit Of Detection

| solubility at 25° C. (solvent Acetic Acid) [% w/w] | solubility at 25° C. (solvent Acetone) [% w/w] | solubility at 25° C. (solvent DMF) [% w/w] | solubility at 25° C. (solvent Ethyl acetate) [% w/w] | solubility at 25° C. (solvent Formic Acid) [% w/w] | solubility at 25° C. (solvent MTBE) [% w/w] | solubility at 25° C. (solvent Methanol) [% w/w] | solubility at 25° C. (solvent Methylene chloride) [% w/w] | solubility at 25° C. (solvent Propionic Acid) [% w/w] | solubility at 25° C. [1] | solubility in formic acid (comparison in words) (formic acid) | Compound |
| --- | --- | --- | --- | --- | --- | --- | --- | --- | --- | --- | --- |
| 8.1 | 0.06 | 2.4 | 0.02 | 7.7 | 0.009 | 0.6 | 0.04 | 6.6 | <LOD | – | C[C@]12CC[C@H]3[C@@H](CCC4NC(=O)C=C[C@@]43C)[C@@H]1CC[C@@H]2C(=O)O (stereo partly drawn) [Intermediate 1] |
| 3.69 | 0.008 | 0.40 | 0.003 | 20.32 | 0.001 | 0.16 | 0.008 | 3.10 | <LOD | higher than Intermediate 1 | C[C@]12CC[C@H]3[C@@H](CCC4NC(=O)CC[C@@]43C)[C@@H]1CC[C@@H]2C(=O)O (stereo partly drawn) [Intermediate 2] |
